Experimental findings from paper PMC11596563, “N-Aryl Benzimidazole and Benzotriazole Derivatives and Their Hybrids as Cytotoxic Agents: Design, Synthesis and Structure–Activity Relationship Studies” (Molecules, 2024) are described below.

One series relates to SW-480. Kind of series: MTT test, cytotoxic effect. The note with it: Homo sapiens, SW480, 24 h treatment, 0.1 to 100 µM, concentration that causes 50% cell death. The class given is cell-based.
Series [1] deals with all the tested cell lines (SH-SY5Y, A549, MCF-7, SW-480, Hek-293). Nature of the series: MTT test, summary over all tested cell lines. The class given is cell-based, human. The note with it: MTT, range of concentrations studied (0.1 to 100 µM). (In general: Tetrazolium dyes change colour on reduction, which living cells bring about.)
Description: (§1) At the first stage of biological testing, we studied the effect of the synthesized compounds on the survival of cells of both tumoral and normal origin. […] In our work, the cytotoxic profile of the synthesized molecules was assessed using the MTT test, based on the ability of a colorless tetrazolium salt (3-[4,5-dimethylthiazol-2-yl]-2,5-diphenyltetrazolium bromide, MTT) to be reduced to colored formazan in the presence of the mitochondrial enzymes of living cells. For this purpose, a number of cell lines of tumoral origin (SH-SY5Y, A549, MCF-7 and SW-480), as well as normal origin (Hek-293), were used.
(§2) For the experiments, we used tumor cell cultures SH-SY5Y, human neuroblast-like cells, A549, human lung adenocarcinoma, MCF-7, human mammary adenocarcinoma, SW-480 and human colorectal adenocarcinoma, as well as cells of normal origin obtained from human embryonic kidneys, Hek-293. The cell lines were obtained from the collection of the Institute of Cytology, Russian Academy of Sciences (St. Petersburg, Russia).
(§3) All cells were cultured in the Dulbecco Modified Eagle’s Medium (DMEM) with a high glucose content, 10% fetal bovine serum and 1% penicillin-streptomycin as an antibiotic, in a moist incubator with 5% CO2 at 37°C.
(§4) To measure cellular metabolic activity, a colorimetric analysis was performed using the MTT reagent (3-(4,5–dimethylthiazol-2-yl)-2,5-diphenyltetrazolium bromide), which is an inhibitor of viable cells [73, 74].
(§5) • Briefly, cells in the logarithmic growth phase were digested and resuspended to adjust the cell density. The cells were then seeded in 96-well plates at a density of 10,000 cells per well. […] Next, the supernatant was discarded; after that, the formazan crystals were dissolved in a DMSO and the absorbance of each well was measured at 570 nm using a multifunctional microplate reader, Cytation3 (Biotech Tools Inc., Winooski, USA).
Another series relates to A549. Kind of series: MTT test, cytotoxic effect. The class given is cell-based. The following applies: Homo sapiens, 24 h treatment, 0.1 to 100 µM, concentration that causes 50% cell death.
A further series has as its system MCF-7. Nature of the series: MTT test, cytotoxic effect. The note with it: Homo sapiens, MCF7, 24 h treatment, 0.1 to 100 µM, concentration that causes 50% cell death. The class given is cell-based.
Another series concerns SH-SY5Y. Nature of the series: cells. The following applies: Homo sapiens, 24 h, read-out: IC50 of the cytotoxic effect, SH-SY5Y.
Series [2] in a line: MTT test, cytotoxic effect on cells of normal origin. The class given is cell-based, human. The following applies: human, Hek-293 cells (normal origin), 24 h treatment, 0.1 to 100 µM, normal cells, concentration that causes 50% cell death.
Description: as §1
For the experiments, we used tumor cell cultures SH-SY5Y, human neuroblast-like cells, A549, human lung adenocarcinoma, MCF-7, human mammary adenocarcinoma, SW-480 and human colorectal adenocarcinoma, as well as cells of normal origin obtained from human embryonic kidneys, Hek-293.
as §3, §4
• Briefly, cells in the logarithmic growth phase were digested and resuspended to adjust the cell density. The cells were then seeded in 96-well plates at a density of 10,000 cells per well. After 24 h of the incubation of the cells under the standard conditions described above (for the purpose of cell adhesion), the cells were treated with the synthesized compounds at different concentrations (0.1 to 100 µM) or a vehicle alone as a control (1% DMSO) for 24 h. After the incubation time of the cells with synthesized compounds, 5 mg/mL of MTT was added to the cells and incubated for 2 h at 37 °C. Next, the supernatant was discarded; after that, the formazan crystals were dissolved in a DMSO and the absorbance of each well was measured at 570 nm using a multifunctional microplate reader, Cytation3 (Biotech Tools Inc., Winooski, USA).
A short description of series [3]: MTT test, summary over all tested cell lines. The note with it: human; all cells, including those of normal origin, Hek-293; read-out: IC50 values of the cytotoxic effect, range over all cells. The class given is cell-based, human.
Description: as §1, §2, §3, §4, §5
Series [4] relates to Fe(II)-induced lipid peroxidation (LPO) of rat brain homogenate. Nature of the series: Fe(II)-induced lipid peroxidation, modified TBARS test. The class given is biochemical. The note with it: Fe(II) 500 μM, rat brain homogenate 2 mg/mL; for IC50: 1 to 300 μM, read-out: IC50 of the lipid peroxidation inhibitory effect; for decrease in the level of malondialdehyde: compounds at 100 μM. On the procedure:
In our work, the antioxidant status of the compounds was determined by their ability to influence the process of Fe(II)-induced lipid peroxidation (LPO) of rat brain homogenate (2 mg/mL). The effect of the substances on LPO was studied using a modified version of the TBA test in a plate format. This test is based on the reaction of 2-thiobarbituric acid with intermediate LPO products, resulting in the formation of a colored trimethine complex, the main role in the formation of which belongs to malondialdehyde. […] This was expressed in a decrease in the level of malondialdehyde in the system by 70, 79 and 71%, respectively, tending to the values of the well-known antioxidant Trolox. Additionally, the IC50 values of the lipid peroxidation inhibitory effect were calculated for these molecules, the values of which are presented in Figure 2B.
To obtain rat brain homogenate, an animal previously anesthetized in a CO2 chamber was decapitated using a guillotine. The brain was homogenized in a buffer containing KCl (120 mM) and HEPES (20 mM), pH = 7.4 at 4 ° C and centrifuged at 1500 g to obtain a supernatant.
The intensity of the lipid peroxidation of the rat brain homogenate was evaluated using a modified TBARS test. […] In the wells of the negative control, the Fe(II) was replaced with water; in samples with a positive control, a solvent was introduced instead of the studied compounds.
At the end of incubation, a TBA reagent ([…] thiobartituric and 1% trichloroacetic acids dissolved in 0.25 N HCl) was added to each well and heated at 90 °C for 90 min.

The test system of another series is A549 cells. Nature of the series: Wound-healing assay (scratch test). The class given is cell-based, human. The following applies: 1 μM; for migration capacity, decrease in the scratch width vs control: 24 h after the damage. An excerpt:
It is also well known that migration and proliferation of cancer cells are key processes involved in the metastatic cascade of malignant neoplasms. In turn, the ability of therapeutic agents to inhibit these processes is considered a promising property of antitumor agents. In this regard, in order to assess the possible antimetastatic potential of cytotoxic diphenylamines 6b, c and d, we analyzed the effect of the substances on the migration and proliferation of tumor cells A549 in a scratch test.
Based on a preliminary series of experiments, 1 μM was chosen as the concentration used in this test, excluding the intrinsic cytotoxic effect of the substances. […] Thus, the data obtained 24 h after the damage was applied allowed us to evaluate the migration capacity of the cells, minimizing the contribution of cell proliferation.
The migration activity of A549 cells was determined by the wound-healing assay (scratch test). To do this, cells (15,000 cells per well) were seeded in a 96-well plate and cultured under the standard conditions described above. After 24 h of incubation, when the cells became 90% confluent, the medium was selected and an identical scratch wound across the center of each well was made by a 200 µL pipette tip.
To remove detached cells, the cell monolayer was washed twice with PBS; after that, the growth media and test compounds at 1 µM (or 1% DMSO as a solvent) were added to each well. A phase contrast microscope at a ×40 magnification was used to take photomicrographs after making the wound and then 24 h, 48 h and 72 h later.
The analysis of the obtained images was calculated using the open-source program ImageJ [80] and a special module: Wound_healing_size_tool.

The test system of the next series is Hek-293. Kind of series: MTT test, cytotoxic effect on cells of normal origin. The note with it: Hek-293. The class given is cell-based, human.

In general, IC50 refers to the midpoint of a concentration-inhibition curve. One may read the melting point as the temperature, or range, at which the solid turns liquid. As for `Nc1cc(C(F)(F)F)ccc1Nc1cc(C(F)(F)F)ccc1-n1cnc2ccccc21` [6a, N-[2-(1H-benzimidazol-1-yl)-5-(trifluoromethyl)phenyl]-2-amino-4-(trifluoromethyl)aniline], the melting point lay in the range of 205 to 207 °C. Besides, in the series on SW-480, the IC50 was no less than 100 µM. Moreover, in [1], the “toxic effect on the tested cell lines” value is on record as “not toxic”. Also, the IC50 in the series on A549 is no less than 100 µM. The concentration for half-maximal inhibition (IC50) with MCF-7 is no less than 100 µM. Moreover, the IC50 with SH-SY5Y is no less than 100 µM. In series [2], this molecule registered a half-maximal inhibitory concentration (IC50) at 24 h of no less than 100 µM.
With `Nc1cc(C(F)(F)F)ccc1Nc1cc(C(F)(F)F)ccc1-n1nnc2ccccc21` [6b, N-[2-(1H-benzotriazol-1-yl)-5-(trifluoromethyl)phenyl]-2-amino-4-(trifluoromethyl)aniline], the melting point lay in the range of 170 to 173 °C. Moreover, in the series with SW-480, the IC50 amounted to 25.09 ± 0.24 µM. Moreover, in [3], the IC50 at 24 h was in the range of 22 to 26 µM. Further, in [4], the concentration for half-maximal inhibition (IC50) came out at 1.68 ± 0.08 µM and the “decrease in the level of malondialdehyde” value is 70%. This molecule also gave an IC50 in the series with A549 of 26.28 ± 0.02 µM. Besides, in the series on MCF-7, half-maximal inhibition (IC50) required 23.29 ± 0.12 µM. In addition, the IC50 in the series with SH-SY5Y worked out at 25.98 ± 0.17 µM. Further, in the series with A549 cells (48 and 72 h), the “unhealed defect area remaining from the original vs control” value is given as “significantly increase”. For the same molecule, in the series on A549 cells, the “migration capacity, decrease in the scratch width vs control” value (“migration capacity, decrease” for short) is listed as “did not find any differences”. Moreover, the “proliferation coefficient of cells vs control” value with A549 cells (A549) was “significant decrease”. In [2], this molecule had an IC50 at 24 h of 22.4 ± 0.41 µM.
Regarding `CCOC(=O)c1ccc(Nc2cc(C(F)(F)F)ccc2-n2nnc3ccccc32)c(N)c1` [6c, Ethyl 3-amino-4-[2-(1H-benzotriazol-1-yl)-5-(trifluoromethyl)anilino]benzoate], the melting point is 178 to 181 °C. For the same molecule, the concentration for half-maximal inhibition (IC50) in the series on SW-480 was no less than 100 µM. In [4], the IC50 worked out at 1.11 ± 0.13 µM and the “decrease in the level of malondialdehyde” value came to 79%. The molecule further yielded a half-maximal inhibitory concentration (IC50) with A549 of 37.68 ± 0.2 µM. Besides, in the series on MCF-7, the half-maximal inhibitory concentration (IC50) amounted to 77.05 ± 0.67 µM. Also, the half-maximal inhibitory concentration (IC50) with SH-SY5Y was 20.94 ± 0.13 µM. Further, the “migration capacity, decrease” value in the series on A549 cells is given as “did not find any differences”. Further, the “ability to suppress the migratory activity of A549 tumor cells” value with A549 cells (conclusion) is recorded as “failed to demonstrate the ability to suppress the migratory activity”. Moreover, in series [2], the IC50 at 24 h is no less than 100 µM. Further, the “cytotoxic effect on cell line of normal origin” value with Hek-293 is “did not exert a cytotoxic effect”.
For `Nc1cc(C(F)(F)F)ccc1Nc1cc(Cl)ccc1-n1nnc2ccccc21` [6d, N-[2-(1H-benzotriazol-1-yl)-5-chlorophenyl]-2-amino-4-(trifluoromethyl)aniline], the melting point lay within 191 to 194 °C. In the series on SW-480, this molecule registered an IC50 of 40.38 ± 0.01 µM. In addition, the IC50 at 24 h in series [3] fell in the range of 31 to 41 µM. In [4], the IC50 was 2.4 ± 0.05 µM and the “decrease in the level of malondialdehyde” value turned out to be 71%. Besides, in the series on A549, the concentration for half-maximal inhibition (IC50) was 41.4 ± 0.79 µM. In the series with MCF-7, this molecule had a concentration for half-maximal inhibition (IC50) of 33.8 ± 0.64 µM. In the series with SH-SY5Y, the IC50 was found to be 31.56 ± 0.07 µM. Further, the “migration capacity, decrease” value with A549 cells is recorded as “did not find any differences”. The IC50 at 24 h in series [2] was 41.39 ± 0.05 µM.
